pIC50: −log10 of the molar value.
Tests used:
COX-2 = target: T1, COX-2 (Ovis aries, UniProt P79208); assay: In vitro COX-2 inhibition, colorimetric enzyme immune assay; format: biochemical, ovine; details: for COX-2 SI (COX-1 IC50/COX-2 IC50): in vitro COX-2 selectivity index; for COX-2 inhibition, in words: compared with celecoxib
T1 sequence (P79208 17-603): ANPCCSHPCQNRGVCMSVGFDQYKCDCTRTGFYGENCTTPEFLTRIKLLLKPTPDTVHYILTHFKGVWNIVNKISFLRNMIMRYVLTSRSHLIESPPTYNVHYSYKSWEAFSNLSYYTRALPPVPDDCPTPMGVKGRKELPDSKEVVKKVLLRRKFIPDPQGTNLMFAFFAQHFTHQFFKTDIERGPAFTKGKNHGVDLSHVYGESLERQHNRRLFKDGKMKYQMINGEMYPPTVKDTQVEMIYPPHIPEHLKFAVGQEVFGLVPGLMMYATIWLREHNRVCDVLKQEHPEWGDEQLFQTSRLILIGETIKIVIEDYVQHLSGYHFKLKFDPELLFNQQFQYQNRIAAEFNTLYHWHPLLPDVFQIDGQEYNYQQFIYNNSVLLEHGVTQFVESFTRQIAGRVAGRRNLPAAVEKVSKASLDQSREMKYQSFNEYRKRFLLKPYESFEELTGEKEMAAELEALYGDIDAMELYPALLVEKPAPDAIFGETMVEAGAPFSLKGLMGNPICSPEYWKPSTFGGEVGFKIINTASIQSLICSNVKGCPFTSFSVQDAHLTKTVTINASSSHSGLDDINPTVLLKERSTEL

COX-1 = target: T2, COX-1 (Ovis aries, UniProt P05979); assay: In vitro COX-1 inhibition, colorimetric enzyme immune assay; format: biochemical, ovine
T2 sequence (P05979 25-600): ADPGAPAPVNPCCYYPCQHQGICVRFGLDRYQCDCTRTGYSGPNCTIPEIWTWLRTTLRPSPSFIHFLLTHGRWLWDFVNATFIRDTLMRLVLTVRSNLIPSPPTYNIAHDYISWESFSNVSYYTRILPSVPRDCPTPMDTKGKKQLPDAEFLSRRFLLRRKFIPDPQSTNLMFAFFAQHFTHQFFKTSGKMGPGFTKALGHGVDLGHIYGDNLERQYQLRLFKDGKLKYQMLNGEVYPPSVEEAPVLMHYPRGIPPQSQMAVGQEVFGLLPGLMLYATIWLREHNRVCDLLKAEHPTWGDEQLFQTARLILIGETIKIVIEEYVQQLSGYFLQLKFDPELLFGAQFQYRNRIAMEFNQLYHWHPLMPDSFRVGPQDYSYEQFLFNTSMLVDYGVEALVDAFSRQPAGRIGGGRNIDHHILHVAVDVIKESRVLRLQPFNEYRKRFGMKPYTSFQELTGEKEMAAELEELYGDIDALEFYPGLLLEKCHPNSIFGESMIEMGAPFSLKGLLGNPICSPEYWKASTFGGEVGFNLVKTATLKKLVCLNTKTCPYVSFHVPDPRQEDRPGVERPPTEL

Row | SMILES | COX-2 SI (COX-1 IC50/COX-2 IC50) (COX-2) | pIC50 (COX-1) | COX-2 inhibition, in words (COX-2)
1 | O=[N+]([O-])c1ccc(-c2ccccc2F)cc1 [Compound 3a, 2-Fluoro-4'-nitrobiphenyl] | 84.16 |  | 
2 | Fc1ccccc1-c1ccc(F)c(C(F)(F)F)c1 [Compound 3b, 2,4'-Difluoro-3'-(trifluoromethyl) biphenyl] | 101.99 | 4.95 | 
3 | Fc1ccc(-c2ccccc2F)cc1OC(F)(F)F [Compound 3c, 2,4'-Difluoro-3'-(trifluoromethoxy)biphenyl] | 109.9 |  | 
4 | O=[N+]([O-])c1cccc(-c2ccccc2F)c1F [Compound 3d, 2,2'-Difluoro-3-nitrobiphenyl] | 68.06 |  | 
5 | COc1ccccc1-c1ccc([N+](=O)[O-])cc1 [Compound 3f, 2-Methoxy-4'-nitrobiphenyl] | 32.55 |  | less potency
6 | COc1ccccc1-c1ccc(F)c(C(F)(F)F)c1 [Compound 3g, 4'-Fluoro-2-methoxy-3'-(trifluoromethyl)biphenyl] | 76.84 |  | 
7 | COc1ccccc1-c1ccc(F)c(OC(F)(F)F)c1 [Compound 3h, 4'-Fluoro-2-methoxy-3'-(trifluoromethoxy)biphenyl] | 67.31 |  | 
8 | COc1ccccc1-c1cccc([N+](=O)[O-])c1F [Compound 3i, 2-Fluoro-2'-methoxy-3-nitrobiphenyl] | 54.94 |  | less potency
9 | COc1ccc(F)c(-c2ccccc2OC)c1 [Compound 3j, 2-Fluoro-2',5-dimethoxybiphenyl] |  |  | less potency
